Source: patent publication US7342027B2 (Yuhan Corporation, priority 2002, dated 2008)
pIC50: −log10 of the molar value.

Legend:
[1] = biological target: T1, Recombinant human cathepsin K (Homo sapiens, UniProt P43235); experiment: Inhibition of cathepsin K activity (Z-Phe-Arg-AMC fluorescence assay); type: biochemical; conditions: 25 uM Z-Phe-Arg-AMC, pH 5.5, 1 hour at 37° C.
T1 construct: made in house
T1 sequence (P43235 115-329): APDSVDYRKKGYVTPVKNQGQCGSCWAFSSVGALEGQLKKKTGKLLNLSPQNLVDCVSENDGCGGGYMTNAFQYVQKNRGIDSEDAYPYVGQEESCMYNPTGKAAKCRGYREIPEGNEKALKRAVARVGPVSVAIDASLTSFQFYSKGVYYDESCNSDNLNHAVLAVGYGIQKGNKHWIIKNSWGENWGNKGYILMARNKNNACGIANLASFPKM
Summary of the method: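 Z-Phe-Arg-AMC at 25 uM in 100 mM Na acetate pH 5.5 with 20 mM cysteine, 5 mM EDTA and 2% final DMSO; reaction started by adding enzyme, then 1 hour at 37° C. Fluorescence read at ex 360/em 460 nm; IC50 is the concentration giving 50% inhibition.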

[2] = biological target: T2, Cathepsin C (Sigma, C8511) (Bos taurus, UniProt Q3ZCJ8); experiment: Selectivity study: cathepsin C (Gly-Phe-pNA); type: biochemical; conditions: 1 hour at 37° C., read-out: Cathepsins (IC50, nM) C
T2 construct: purchased Sigma C8511
Protocol: (§1) Test 2: Selectivity Study
(§2) Selectivity study for the compounds of the present invention was performed using cathepsin C (Sigma, C8511), cathepsin G (Calbiochem, 219373), cathepsin H (Calbiochem, 219388), cathepsin L (Calbiochem, 219402), and cathepsin S (Eur. J. Biochem. 236, 558 (1996) as enzyme sources.
(§3) Cathepsin C (Sigma, C8511) was dissolved in D.W. buffer (pH 5.5). All inhibitors were prepared in dimethyl sulfoxide (DMSO). In vitro assays for cathepsin C were conducted with Gly-Phe-pNA (Sigma, G-0142) as a substrate. Samples were pre-incubated for 10 minutes at 37° C. Reaction was initiated by the addition of enzyme to samples, which were then incubated for 1 hour at 37° C. The absorbance of p-nitroaniline released was monitored at 405 nm using spectrophotometer.
(§4) The concentrations of the test compounds, which inhibit 50% of cathepsin s C, G, H, L and S activity, are represented as IC50 in Table 2.

[3] = biological target: T3, Cathepsin G (Calbiochem, 219373) (Homo sapiens, UniProt P08311); experiment: Selectivity study: cathepsin G (Suc-Ala-Ala-Pro-Phe-pNA); type: biochemical; conditions: 1 hour at 25° C., read-out: Cathepsins (IC50, nM) G
T3 construct: purchased Calbiochem 219373
T3 sequence (P08311 21-244): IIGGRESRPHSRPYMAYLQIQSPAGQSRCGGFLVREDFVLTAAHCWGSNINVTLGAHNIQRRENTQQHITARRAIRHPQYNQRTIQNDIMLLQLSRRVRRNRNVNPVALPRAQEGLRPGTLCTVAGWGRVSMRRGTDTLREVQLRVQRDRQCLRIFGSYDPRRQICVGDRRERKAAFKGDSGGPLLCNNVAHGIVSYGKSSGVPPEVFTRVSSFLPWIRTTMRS
Protocol: as §1, §2
as §3, with “Cathepsin G (Calbiochem, 219373)” for “Cathepsin C (Sigma, C8511)”, “in 50 mM NaOAc and 150 mM NaCl” for “in D.W.”, “cathepsin G” for “cathepsin C”, “with Suc-Ala-Ala-Pro-Phe-pNA (Calbiochem, 219407)” for “with Gly-Phe-pNA (Sigma, G-0142)”, “at 25°” for “at 37°”
as §4

[4] = biological target: T4, Cathepsin H (Calbiochem, 219388) (Homo sapiens, UniProt P09668); experiment: Selectivity study: cathepsin H (L-Arg-pNA); type: biochemical; conditions: 1 hour at 40° C., read-out: Cathepsins (IC50, nM) H
T4 construct: purchased Calbiochem 219388
T4 sequence (P09668 98-335): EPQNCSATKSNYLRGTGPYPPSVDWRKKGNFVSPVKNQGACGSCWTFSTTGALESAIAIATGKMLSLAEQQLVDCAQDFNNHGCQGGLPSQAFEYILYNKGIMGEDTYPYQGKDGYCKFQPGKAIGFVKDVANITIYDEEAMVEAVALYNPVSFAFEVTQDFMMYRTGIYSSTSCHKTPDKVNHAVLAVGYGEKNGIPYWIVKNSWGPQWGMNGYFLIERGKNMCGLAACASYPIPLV
Protocol: as §1, §2
Cathepsin H (Calbiochem, 219388) was dissolved in 20 mM NaOAc, 1 mM EDTA-2Na and 100 mM NaCl buffer (pH 4.6). All inhibitors were prepared dimethyl sulfoxide (DMSO). In vitro assays for cathepsin H were conducted with L-Arg-pNA (BACHEM, 1-1160) as a substrate. Samples were pre-incubated for 5 minutes at 40° C. Reaction was initiated by the addition of enzyme to samples, which were then incubated for 1 hour at 40° C. The absorbance of p-nitroaniline released was monitored at 405 nm using spectrophotometer.
as §4

[5] = biological target: T5, Cathepsin L (Calbiochem, 219402) (Homo sapiens, UniProt P07711); experiment: Selectivity study: cathepsin L (Z-Phe-Arg-AMC); type: biochemical; conditions: 1 hour at 25° C., read-out: Cathepsins (IC50, nM) L
T5 construct: purchased Calbiochem 219402
Protocol: as §1, §2
Cathepsin L (Calbiochem, 219402) was dissolved in 50 mM NaOAc buffer (pH 5.0). All inhibitors were prepared in dimethyl sulfoxide (DMSO). […] Samples were pre-incubated for 5 minutes at 25° C. Reaction was initiated by the addition of enzyme to samples, which were then incubated for 1 hour at 25° C. The fluorescence of AMC (7-amino-4-methylcoumarin) was monitored at 460 nm (excitation wavelength 360 nm), using fluorescence spectrophotometer.
as §4

[6] = biological target: Recombinant human Cathepsin S (Homo sapiens, UniProt P25774); experiment: Selectivity study: cathepsin S (Z-Val-Val-AMC); type: biochemical; conditions: 30 minutes at 37° C., read-out: Cathepsins (IC50, nM) S
Protocol: as §1, §2
Recombinant human Cathepsin S (Eur. J. Biochem. 236, 558 (1996) was dissolved in 0.1 M NaOAc 1 mM EDTA-4Na buffer (pH 5.5). All inhibitors were prepared in dimethyl sulfoxide (DMSO). In vitro assays for cathepsin S were conducted with Z-Val-Val-AMC (BACHEM, 1-1160) as a substrate. Samples were pre-incubated for 10 minutes at 4° C. Reaction was initiated by the addition of enzyme to samples, which were then incubated for 30 minutes at 37° C. The florescence of AMC (7-amino-4-methylcoumarin) released was monitored at 465 nm (excitation wavelength 360 nm), using fluorescence spectrophotometer.
as §4

T2 sequence (Q3ZCJ8 25-463): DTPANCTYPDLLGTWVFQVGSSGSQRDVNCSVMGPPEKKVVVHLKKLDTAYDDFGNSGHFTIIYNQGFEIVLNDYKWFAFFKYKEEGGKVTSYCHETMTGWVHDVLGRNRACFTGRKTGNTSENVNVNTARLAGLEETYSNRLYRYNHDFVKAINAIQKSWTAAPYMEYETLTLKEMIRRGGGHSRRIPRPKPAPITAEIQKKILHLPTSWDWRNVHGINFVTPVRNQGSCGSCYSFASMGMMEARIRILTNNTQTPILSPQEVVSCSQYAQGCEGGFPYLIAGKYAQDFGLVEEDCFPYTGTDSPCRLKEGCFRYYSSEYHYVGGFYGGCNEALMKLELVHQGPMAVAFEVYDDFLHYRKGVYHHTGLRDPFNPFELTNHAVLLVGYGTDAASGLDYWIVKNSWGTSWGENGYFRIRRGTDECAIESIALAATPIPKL
T5 sequence (P07711 114-333): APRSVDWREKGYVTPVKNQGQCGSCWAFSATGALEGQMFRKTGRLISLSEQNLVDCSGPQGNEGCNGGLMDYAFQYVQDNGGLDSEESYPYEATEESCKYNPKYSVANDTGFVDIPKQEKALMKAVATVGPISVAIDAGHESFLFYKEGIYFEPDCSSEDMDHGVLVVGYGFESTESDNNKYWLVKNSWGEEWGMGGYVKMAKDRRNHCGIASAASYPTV
Sequence of Recombinant human Cathepsin S (P25774 115-331): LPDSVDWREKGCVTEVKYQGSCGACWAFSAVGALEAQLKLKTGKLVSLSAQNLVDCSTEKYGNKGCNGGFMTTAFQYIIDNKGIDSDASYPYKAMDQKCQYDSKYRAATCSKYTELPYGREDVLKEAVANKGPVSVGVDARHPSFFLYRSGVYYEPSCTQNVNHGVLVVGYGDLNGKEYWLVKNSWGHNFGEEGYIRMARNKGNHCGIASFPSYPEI

Row | Compound | pIC50 [1] | IC50 [2] [nM] | IC50 [3] [nM] | IC50 [4] [nM] | IC50 [5] [nM] | IC50 [6] [nM] | melting point [°C]
1 | O=C(NC1(C(=O)NC2CCN(c3ccccc3[N+](=O)[O-])CC2=O)CCCCC1)c1cc2ccccc2o1 (stereo not drawn) [Example 2, 4-[N-[1-[N-(benzofuran-2-ylcarbonyl)amino]cyclohexanecarbonyl]amino]-1-(2-nitrophenyl)piperidin-3-one] | 8.22 | > 1000 | > 1000 | > 1000 | 2100 | 2100 | 
2 | O=C(NC1(C(=O)NC2CCN(c3ccccc3N3CCCC3=O)CC2=O)CCCCC1)c1cc2ccccc2o1 (stereo not drawn) [Example 44, 4-[N-[1-[N-(benzofuran-2-ylcarbonyl)amino]cyclohexanecarbonyl]amino]-1-[2-(pyrrolidin-2-one-1-yl)phenyl]piperidin-3-one] | 8.30 | 394 | > 690 | > 690 | 574 | 460 | 
3 | O=C(NC1(C(=O)NC2CCN(c3ccccc3-n3cccc3)CC2=O)CCCCC1)c1cc2ccccc2o1 (stereo not drawn) [Example 60, 4-[N-[1-[N-(benzofuran-2-ylcarbonyl)amino]cyclohexanecarbonyl]amino]-1-[2-(pyrrol-1-yl)phenyl]piperidin-3-one] |  | > 1000 | > 1000 | > 1000 | 103 | > 150 | 
4 | CN(C)C(=O)c1ccccc1N1CCC(NC(=O)C2(NC(=O)c3cc4ccccc4o3)CCCCC2)C(=O)C1 (stereo not drawn) [Example 61, 4-[N-[1-[N-(benzofuran-2-ylcarbonyl)amino]cyclohexanecarbonyl]amino]-1-[2-(N,N-dimethylcarbamoyl)phenyl]piperidin-3-one] |  | > 1000 | > 1000 | > 1000 | > 300 | > 300 | 
5 | CNC(=O)c1ccccc1N1CCC(NC(=O)C2(NC(=O)c3cc4ccccc4o3)CCCCC2)C(=O)C1 (stereo not drawn) [Example 62, 4-[N-[1-[N-(benzofuran-2-ylcarbonyl)amino]cyclohexanecarbonyl]amino]-1-[2-(N-methylcarbamoyl)phenyl]piperidin-3-one] |  | > 1000 | > 1000 | > 1000 | > 450 | > 450 | 
6 | O=C(NC1(C(=O)NC2CCN(c3ccccc3N3CCCS3(=O)=O)CC2=O)CCCCC1)c1cc2ccccc2o1 (stereo not drawn) [Example 75] | 9.29 | > 1000 | > 1000 | > 1000 | 32.5 | > 150 | 
7 | CC(C)S(=O)(=O)c1ccccc1N1CCC(NC(=O)C2(NC(=O)c3ccco3)CCCCC2)C(=O)C1 (stereo not drawn) [Example 80, 4-[N-[1-[N-(furan-2-ylcarbonyl)amino]cyclohexanecarbonyl]amino]-1-(2-isopropylsulfonylphenyl)piperidin-3-one] | 8.30 | > 1000 | > 1000 | > 1000 | 381 | 109 | 

Results, then the molecule that gave them:

Row | pIC50 [1] | IC50 [2] [nM] | IC50 [3] [nM] | IC50 [4] [nM] | IC50 [5] [nM] | IC50 [6] [nM] | melting point [°C] | Compound
8 | 8.09 | 382 | > 240 | > 240 | 138 | 133 | 219 to 220 | CS(=O)(=O)c1ccccc1N1CCC(NC(=O)C2(NC(=O)c3cc4ccccc4o3)CCCCC2)C(=O)C1 (stereo not drawn) [Example 1, 4-[N-[1-[N-(benzofuran-2-ylcarbonyl)amino]cyclohexanecarbonyl]amino]-1-(2-methylsulfonylphenyl)piperidin-3-one]
9 | 8.09 | > 2460 | > 2460 | > 2460 | 971 | 204 |  | CS(=O)(=O)c1ccccc1N1CCC(NC(=O)C2(NC(=O)c3ccco3)CCCCC2)C(=O)C1 (stereo not drawn) [Example 76, 4-[N-[1-[N-(furan-2-ylcarbonyl)amino]cyclohexanecarbonyl]amino]-1-(2-methanesulfonylphenyl)piperidin-3-one]
10 | 8.57 | > 810 | > 810 | > 810 | 352 | 177 |  | CS(=O)(=O)c1cc(F)ccc1N1CCC(NC(=O)C2(NC(=O)c3ccco3)CCCCC2)C(=O)C1 (stereo not drawn) [Example 83, 4-[N-[1-[N-(furan-2-ylcarbonyl)amino]cyclohexanecarbonyl]amino]-1-(4-fluoro-2-methylsulfonylphenyl)piperidin-3-one]
11 | 8.20 | > 1000 | > 1000 | > 1000 | 986 | 212 |  | COc1ccc(N2CCC(NC(=O)C3(NC(=O)c4ccco4)CCCCC3)C(=O)C2)c(S(C)(=O)=O)c1 (stereo not drawn) [Example 84, 4-[N-[1-[N-(furan-2-ylcarbonyl)amino]cyclohexanecarbonyl]amino]-1-(4-methoxy-2-methylsulfonylphenyl)piperidin-3-one]
12 |  | > 1000 | > 1000 | > 1000 | 1450 | 197 |  | O=C(NC1(C(=O)NC2CCN(c3ccc(F)cc3N3CCC3=O)CC2=O)CCCCC1)c1ccco1 (stereo not drawn) [Example 94, 4-[N-[1-[N-(furan-2-ylcarbonyl)amino]cyclohexanecarbonyl]amino]-1-[4-fluoro-2-(azetidin-2-one-1-yl)phenyl]piperidin-3-one]
13 | 8.32 | > 1000 | > 1000 | > 1000 | 249 | 214 |  | CS(=O)(=O)c1cc(F)ccc1N1CCC(NC(=O)C2(NC(=O)c3ccc(F)cc3)CCCCC2)C(=O)C1 (stereo not drawn) [Example 147, 4-[N-[1-[N-(4-fluorobenzoyl)amino]cyclohexanecarbonyl]amino]-1-(4-fluoro-2-methanesulfonylphenyl)piperidin-3-one]
14 | 8.51 | > 1000 | > 1000 | > 1000 | 178 | 141 |  | COc1ccc(N2CCC(NC(=O)C3(NC(=O)c4ccc(F)cc4)CCCCC3)C(=O)C2)c(S(C)(=O)=O)c1 (stereo not drawn) [Example 148, 4-[N-[1-[N-(4-fluorobenzoyl)amino]cyclohexanecarbonyl]amino]-1-(2-methanesulfonyl-4-methoxyphenyl)piperidin-3-one]
